Results published in patent US20240368135A1 (VERTEX PHARMACEUTICALS INCORPORATED, priority 2021, published 2024).

These compounds were tested against human NaV 1.8 (Homo sapiens, UniProt Q9Y5Y9) (assay: E-VIPR assay detecting and measuring NaV inhibition properties). Settings: HEK cells expressing truncated human NaV 1.8; in the presence of human serum (compound numbers followed by *); read-out: IC50 in the E-VIPR Assay, performed in the presence of human serum.
Type: cell-based
Outline: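 Membrane potential was followed by coumarin/oxonol FRET during electrical field stimulation of matrigel-seeded HEK cells carrying truncated human NaV1.8 plus KIR2.1. Dosing used 11 points, 3-fold steps, top 300 nM final, 0.625% DMSO, with or without 25% human serum.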

human NaV 1.8, sequence (Q9Y5Y9 126-399 limits assumed): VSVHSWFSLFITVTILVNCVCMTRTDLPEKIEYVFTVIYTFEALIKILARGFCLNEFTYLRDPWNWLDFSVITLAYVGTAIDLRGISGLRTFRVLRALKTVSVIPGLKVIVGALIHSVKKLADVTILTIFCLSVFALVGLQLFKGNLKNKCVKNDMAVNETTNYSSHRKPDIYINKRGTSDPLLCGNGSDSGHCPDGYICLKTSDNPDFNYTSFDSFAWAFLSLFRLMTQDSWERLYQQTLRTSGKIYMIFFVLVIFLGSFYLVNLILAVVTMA
human NaV 1.8, sequence (Q9Y5Y9 660-890 limits assumed): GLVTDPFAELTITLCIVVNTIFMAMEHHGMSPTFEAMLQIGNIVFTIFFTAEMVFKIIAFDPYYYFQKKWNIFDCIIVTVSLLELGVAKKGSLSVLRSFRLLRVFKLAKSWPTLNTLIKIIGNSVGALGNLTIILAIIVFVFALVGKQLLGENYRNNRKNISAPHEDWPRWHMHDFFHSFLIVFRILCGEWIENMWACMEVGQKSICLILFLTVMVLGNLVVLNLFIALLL
human NaV 1.8, sequence (Q9Y5Y9 1148-1722 limits assumed): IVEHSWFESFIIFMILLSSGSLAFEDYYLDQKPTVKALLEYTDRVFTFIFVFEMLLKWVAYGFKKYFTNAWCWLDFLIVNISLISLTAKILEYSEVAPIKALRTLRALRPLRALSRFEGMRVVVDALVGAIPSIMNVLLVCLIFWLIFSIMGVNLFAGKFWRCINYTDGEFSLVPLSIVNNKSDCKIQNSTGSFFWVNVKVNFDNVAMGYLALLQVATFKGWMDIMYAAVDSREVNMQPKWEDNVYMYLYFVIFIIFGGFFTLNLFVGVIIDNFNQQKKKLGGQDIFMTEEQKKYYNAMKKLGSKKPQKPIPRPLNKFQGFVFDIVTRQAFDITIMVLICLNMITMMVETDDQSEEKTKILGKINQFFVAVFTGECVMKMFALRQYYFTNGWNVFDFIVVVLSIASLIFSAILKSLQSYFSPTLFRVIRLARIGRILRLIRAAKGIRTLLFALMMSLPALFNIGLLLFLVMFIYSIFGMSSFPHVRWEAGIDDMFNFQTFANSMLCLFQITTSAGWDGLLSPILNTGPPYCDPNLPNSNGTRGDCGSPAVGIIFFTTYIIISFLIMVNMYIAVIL

SMILES	IC50
C[C@@H]1[C@H](c2ccc(F)c(F)c2OC(F)F)[C@@H](C(=O)Nc2ccnnc2)O[C@]1(C)C(F)(F)F (stereo in doubt) [Compound 63, rel-(2S,3R,4R,5S)-3-(2-(difluoromethoxy)-3,4-difluorophenyl)-4,5-dimethyl-N-(pyridazin-4-yl)-5-(trifluoromethyl)tetrahydrofuran-2-carboxamide]	≥ 1000 nM

Same assay, conditions: HEK cells expressing truncated human NaV 1.8; no human serum; read-out: IC50 in the E-VIPR Assay

SMILES	IC50
COc1c([C@H]2[C@H](C(=O)Nc3cc(C[C@H](O)CO)n(C)n3)O[C@@](C)(C(F)(F)F)[C@H]2C)ccc(F)c1F [Compound 5, (2R,3S,4S,5R)-3-(3,4-difluoro-2-methoxyphenyl)-N-(5-((S)-2,3-dihydroxypropyl)-1-methyl-1H-pyrazol-3-yl)-4,5-dimethyl-5-(trifluoromethyl)tetrahydrofuran-2-carboxamide]	10 to 100 nM
CCOc1c([C@H]2[C@H](C(=O)Nc3ccnc(C(O)CO)c3)O[C@@](C)(C(F)(F)F)[C@H]2C)ccc(F)c1F (single isomer, unassigned) [Compound 104, rel-(2R*,3S*,4S*,5R*)-N-(2-(1,2-dihydroxyethyl)pyridin-4-yl)-3-(2-ethoxy-3,4-difluorophenyl)-4,5-dimethyl-5-(trifluoromethyl)tetrahydrofuran-2-carboxamide]	< 10 nM
C[C@H]1[C@@H](c2ccc(F)c(F)c2OCC(C)(F)F)[C@H](C(=O)Nc2ccnc(CO)c2)O[C@@]1(C)C(F)(F)F [Compound 643, (2R,3S,4S,5R)-3-(2-(2,2-difluoropropoxy)-3,4-difluorophenyl)-N-(2-(hydroxymethyl)pyridin-4-yl)-4,5-dimethyl-5-(trifluoromethyl)tetrahydrofuran-2-carboxamide]	< 10 nM
COc1c([C@H]2[C@H](C(=O)Nc3ccc(SC)nc3)O[C@@](C)(C(F)(F)F)[C@H]2C)ccc(F)c1F [Compound 324, (2R,3S,4S,5R)-3-(3,4-difluoro-2-methoxyphenyl)-4,5-dimethyl-N-(6-(methylthio)pyridin-3-yl)-5-(trifluoromethyl)-tetrahydrofuran-2-carboxamide]	10 to 100 nM
C[C@H]1[C@@H](c2ccc(F)c(F)c2OCCO)[C@H](C(=O)Nc2ccnc(C(F)F)c2)O[C@@]1(C)C(F)(F)F [Compound 566, (2R,3S,4S,5R)-3-(3,4-difluoro-2-(2-hydroxyethoxy)phenyl)-N-(2-(difluoromethyl)pyridin-4-yl)-4,5-dimethyl-5-(trifluoromethyl)tetrahydrofuran-2-carboxamide]	< 10 nM
COc1c([C@H]2[C@H](C(=O)Nc3ccnc(N4CC[C@H](O)C4=O)c3)O[C@@](C)(C(F)(F)F)[C@H]2C)ccc(F)c1F [Compound 473, (2R,3S,4S,5R)-3-(3,4-difluoro-2-methoxyphenyl)-N-(2-((S)-3-hydroxy-2-oxopyrrolidin-1-yl)pyridin-4-yl)-4,5-dimethyl-5-(trifluoromethyl)tetrahydrofuran-2-carboxamide]	10 to 100 nM
COCc1c(F)ccc([C@@H]2[C@@H](C(=O)Nc3ccc(C(N)=O)nc3)O[C@](C)(C(F)(F)F)[C@@H]2C)c1OC (stereo in doubt) [Compound 178, rel-5-((2S,3R,4R,5S)-3-(4-fluoro-2-methoxy-3-(methoxymethyl)phenyl)-4,5-dimethyl-5-(trifluoromethyl)tetrahydrofuran-2-carboxamido)picolinamide]	≥ 1000 nM
COc1c([C@H]2[C@H](C(=O)Nc3cn(C[C@H](O)CO)nc3C)O[C@@](C)(C(F)(F)F)[C@H]2C)ccc(F)c1F [Compound 332, (2R,3S,4S,5R)-3-(3,4-difluoro-2-methoxy-phenyl)-N-[1-[(2S)-2,3-dihydroxypropyl]-3-methyl-pyrazol-4-yl]-4,5-dimethyl-5-(trifluoromethyl)tetrahydrofuran-2-carboxamide]	< 10 nM
COc1c([C@H]2[C@H](C(=O)Nc3ccnc(C4(N)COC4)n3)O[C@@](C)(C(F)(F)F)[C@H]2C)ccc(F)c1F [Compound 310, (2R,3S,4S,5R)-N-[2-(3-aminooxetan-3-yl)pyrimidin-4-yl]-3-(3,4-difluoro-2-methoxy-phenyl)-4,5-dimethyl-5-(trifluoromethyl)tetrahydrofuran-2-carboxamide]	10 to 100 nM
COc1c([C@H]2[C@H](C(=O)Nc3ccnc(C[C@H](O)CO)c3)O[C@@](C)(C(F)(F)F)[C@H]2C)ccc(F)c1F [Compound 333, (2R,3S,4S,5R)-3-(3,4-difluoro-2-methoxy-phenyl)-N-[2-[(2S)-2,3-dihydroxypropyl]-4-pyridyl]-4,5-dimethyl-5-(trifluoromethyl)tetrahydrofuran-2-carboxamide]	< 10 nM
COc1c([C@H]2[C@H](C(=O)NCC3CN(C)C(=O)CO3)O[C@@](C)(C(F)(F)F)[C@H]2C)ccc(F)c1F (stereo partly drawn) [Compound 290, (2R,3S,4S,5R)-3-(3,4-difluoro-2-methoxyphenyl)-4,5-dimethyl-N-((4-methyl-5-oxomorpholin-2-yl)methyl)-5-(trifluoromethyl)tetrahydrofuran-2-carboxamide]	≥ 1000 nM
COCc1cc(NC(=O)[C@@H]2O[C@@](C)(C(F)(F)F)[C@@H](C)[C@H]2c2ccc(F)c(F)c2OCCO)ccn1 [Compound 564, (2R,3S,4S,5R)-3-(3,4-difluoro-2-(2-hydroxyethoxy)phenyl)-N-(2-(methoxymethyl)pyridin-4-yl)-4,5-dimethyl-5-(trifluoromethyl)tetrahydrofuran-2-carboxamide]	< 10 nM
COc1c([C@H]2[C@H](C(=O)Nc3ccnc(N4C(=O)CN(C)C[C@@H]4CO)c3)O[C@@](C)(C(F)(F)F)[C@H]2C)ccc(F)c1F [Compound 511, (2R,3S,4S,5R)-3-(3,4-difluoro-2-methoxyphenyl)-N-(2-((R)-2-(hydroxymethyl)-4-methyl-6-oxopiperazin-1-yl)pyridin-4-yl)-4,5-dimethyl-5-(trifluoromethyl)tetrahydrofuran-2-carboxamide]	< 10 nM
COc1c([C@H]2[C@H](C(=O)Nc3cncc(S(=O)(=O)N4CCN(C)CC4)c3)O[C@@](C)(C(F)(F)F)[C@H]2C)ccc(F)c1F [Compound 380, (2R,3S,4S,5R)-3-(3,4-difluoro-2-methoxyphenyl)-4,5-dimethyl-N-(5-((4-methylpiperazin-1-yl)sulfonyl)pyridin-3-yl)-5-(trifluoromethyl)tetrahydrofuran-2-carboxamide]	10 to 100 nM
Cc1nocc1NC(=O)[C@@H]1O[C@@](C)(C(F)(F)F)[C@@H](C)[C@H]1c1ccc(F)c(F)c1OCCN1CC(C(F)F)C1 [Compound 629, (2R,3S,4S,5R)-3-(2-(2-(3-(difluoromethyl)azetidin-1-yl)ethoxy)-3,4-difluorophenyl)-4,5-dimethyl-N-(3-methylisoxazol-4-yl)-5-(trifluoromethyl)tetrahydrofuran-2-carboxamide]	10 to 100 nM
C[C@@H]1[C@H](c2ccc(F)c(F)c2OC(F)F)[C@@H](C(=O)Nc2ccn3nnnc3c2)O[C@]1(C)C(F)(F)F (single isomer, unassigned) [Compound 79]	100 to 1000 nM
COc1c([C@H]2[C@H](C(=O)Nc3ccnc(C4(N(C)C)COC4)c3)O[C@@](C)(C(F)(F)F)[C@H]2C)ccc(F)c1F [Compound 362, (2R,3S,4S,5R)-3-(3,4-difluoro-2-methoxyphenyl)-N-(2-(3-(dimethylamino)oxetan-3-yl)pyridin-4-yl)-4,5-dimethyl-5-(trifluoromethyl)tetrahydrofuran-2-carboxamide]	< 10 nM
COCC(C)(C)N(C)Cc1cc(NC(=O)[C@@H]2O[C@@](C)(C(F)(F)F)[C@@H](C)[C@H]2c2ccc(F)c(F)c2OC)ccn1 [Compound 15]	10 to 100 nM
Cc1nocc1NC(=O)[C@@H]1O[C@@](C)(C(F)(F)F)[C@@H](C)[C@H]1c1ccc(F)c(F)c1OCCN1CC2CC(C1)O2 [Compound 633, (2R,3S,4S,5R)-3-(2-(2-(6-oxa-3-azabicyclo[3.1.1]heptan-3-yl)ethoxy)-3,4-difluorophenyl)-4,5-dimethyl-N-(3-methylisoxazol-4-yl)-5-(trifluoromethyl)tetrahydrofuran-2-carboxamide]	10 to 100 nM
C=Cc1c([C@H]2[C@H](C(=O)Nc3cn(C(F)F)nc3C)O[C@@](C)(C(F)(F)F)[C@H]2C)ccc(F)c1F [Compound 676, (2R,3S,4S,5R)-3-(3,4-difluoro-2-vinylphenyl)-N-(1-(difluoromethyl)-3-methyl-1H-pyrazol-4-yl)-4,5-dimethyl-5-(trifluoromethyl)tetrahydrofuran-2-carboxamide]	< 10 nM
COC1CN(CCOc2c([C@H]3[C@H](C(=O)Nc4conc4C)O[C@@](C)(C(F)(F)F)[C@H]3C)ccc(F)c2F)C1 [Compound 627, (2R,3S,4S,5R)-3-(3,4-difluoro-2-(2-(3-methoxyazetidin-1-yl)ethoxy)phenyl)-4,5-dimethyl-N-(3-methylisoxazol-4-yl)-5-(trifluoromethyl)tetrahydrofuran-2-carboxamide]	10 to 100 nM
COc1c([C@H]2[C@H](C(=O)Nc3cc(C(N)C(C)(C)OC)ncc3F)O[C@@](C)(C(F)(F)F)[C@H]2C)ccc(F)c1F (single isomer, unassigned) [Compound 356, rel-(2R*,3S*,4S*,5R*)-N-(2-(1-amino-2-methoxy-2-methylpropyl)-5-fluoropyridin-4-yl)-3-(3,4-difluoro-2-methoxyphenyl)-4,5-dimethyl-5-(trifluoromethyl)-tetrahydrofuran-2-carboxamide]	10 to 100 nM
CNC(c1cc(NC(=O)[C@@H]2O[C@@](C)(C(F)(F)F)[C@@H](C)[C@H]2c2ccc(F)c(F)c2OC)ccn1)C(C)(C)OC (single isomer, unassigned) [Compound 344, rel-(2R*,3S*,4S*,5R*)-3-(3,4-difluoro-2-methoxyphenyl)-N-(2-(2-methoxy-2-methyl-1-(methylamino)propyl)pyridin-4-yl)-4,5-dimethyl-5-(trifluoromethyl)-tetrahydrofuran-2-carboxamide]	< 10 nM
